Earlier results on 7 molecules are cited in patent US6660297B2, “Nutritional supplement to treat macular degeneration” (Bausch & Lomb Incorporated, priority 2001, dated 2003).

Like-named read-outs stand apart in the source and are kept apart here.

The test system of one series is macular degeneration. As to conditions: 80 mg of zinc versus placebo.
For series [1] the following is noted: consumed daily.
The conditions of series [2]: in vivo.
For series [3] the following is noted: 1.0 mg equal to 1 IU.
For series [4] the following is noted: in vivo. The source holds these as a separate data set.
Assay in series [5]: not given
This is another data set of the same source.

For series [6] the following is noted: in vivo. This is another data set of the same source.

`[Zn]` [zinc]: the tolerability result (about 200 mg per day) was “well tolerated”. In addition, the side effects entry (about 200 mg per day, attributable to copper deficiency) was “potential side effects such as anemia”. Further, the “retarding macular degeneration changes” value in the series on macular degeneration is listed as “significantly better than placebo”.

On to `O=C1O[C@H]([C@@H](O)CO)C(O)=C1O` [vitamin C, Ascorbic acid], for which the “daily intake without any known adverse effects” value in series [1] was ≥ 1,000 mg.

In the case of vitamin E, the “time stored vitamin E contributes to the total body pool” value in series [2] is “up to one”.

As for `CC(=O)Oc1c(C)c(C)c2c(c1C)CC[C@@](C)(CCC[C@H](C)CCC[C@H](C)CCCC(C)C)O2` (racemic) [dl-alpha tocopheryl acetate], in series [3], the “level at which no adverse effects have been observed” value is listed as at most 800 mg.

On to `[O]=[Zn]` [zinc oxide], for which the “tolerability in the digestive system” value (in vivo) is given as “well tolerated”.

With `CC1=C(/C=C/C(C)=C/C=C/C(C)=C/C=C/C=C(C)/C=C/C=C(C)/C=C/C2=C(C)CCCC2(C)C)C(C)(C)CCC1` [beta-carotene], the “efficiency of conversion to vitamin A in the body” value in series [4] is recorded as “approximately 50%”. Besides, the “observed risk in individuals who receive 20 mg/day” value in series [5] (male smokers) was “increased risk of lung cancer”; in series [5] (men with previous myocardial infarction), “increased risk of fatal coronary heart attacks”. Also, the “dosage level with no observed adverse effects” value in series [5] (healthy, non-smokers) is at most 25 mg per day.

Take `[Cu]` [copper]: the “effect on zinc absorption” value in series [6] is “does not appear to have a deleterious effect”.
